Where no end group is shown, it is not given here.
What was measured:
[1] = tested on: E. coli 25922; format: cell-based, Escherichia coli; conditions: 25922, 24 h
Description: (§1) The antimicrobial activities of the peptides were measured using a method adapted from the National Committee for Clinical Laboratory Standards (NCCLS) with some modifications ([Chou et al., 2016]). The specific procedure for these assays has been previously described. In brief, the bacterial cells were grown to a mid-logarithmic phase and diluted in MHB to an ultimate concentration of 0.5–1 × 10^6 CFU mL^–1. Subsequently, the peptides were consecutively diluted in a 0.2% BSA solution and then added to a bacterial solution in a 96-well plate at identical volumes. After incubation for 24 h at 37°C, the MICs were determined to be the lowest peptide concentration that inhibited 95% of the bacterial growth by monitoring the absorbance at 492 nm using a microplate reader. Subsequently, 50 μL of each incubation mixture was further transferred to agar plates and incubated overnight. The minimum bactericidal concentrations (MBCs) were determined as the lowest peptide concentration that killed greater than 99.9% of the bacterial cells. Every assay was reproduced more than 3 times.

[2] = tested on: E. coli O78; format: cell-based, Escherichia coli; conditions: O78, 24 h
Description: as §1

[3] = tested on: E. coli UB1005; format: cell-based, Escherichia coli; conditions: UB1005, 24 h
Description: as §1

[4] = tested on: S. typhimurium 14028; format: cell-based, Salmonella typhimurium; conditions: 14028, 24 h
Description: as §1

[5] = tested on: S. typhimurium 7731; format: cell-based, Salmonella typhimurium; conditions: 7731, 24 h
Description: as §1

[6] = tested on: S. pullorum 7913; format: cell-based, Salmonella pullorum; conditions: 7913, 24 h
Description: as §1

[7] = tested on: P. aeruginosa 27853; format: cell-based, Pseudomonas aeruginosa; conditions: 27853, 24 h
Description: as §1

[8] = tested on: Gram-negative bacteria; conditions: for GM, Gram-negative bacteria: geometric mean of MICs (Table 3); for TI, Gram-negative bacteria: therapeutic index TI = MHC/GM MIC
Description: (§2) The antimicrobial activity of AMPs is the most decisive index for evaluating the clinical application of antimicrobial drugs.
as §1, with “The minimum bactericidal concentrations (MBCs) were determined as the lowest peptide concentration that killed greater than 99.9% of the bacterial cells.” left out

[9] = tested on: Gram-positive bacteria; conditions: for GM, Gram-positive bacteria: geometric mean of MICs (Table 3); for TI, Gram-positive bacteria: therapeutic index TI = MHC/GM MIC
Description: as §2
as §1, with “The minimum bactericidal concentrations (MBCs) were determined as the lowest peptide concentration that killed greater than 99.9% of the bacterial cells.” left out

[10] = tested on: S. aureus 25923; format: cell-based, Staphylococcus aureus; conditions: 25923, 24 h
Description: as §1

[11] = tested on: S. aureus 29213; format: cell-based, Staphylococcus aureus; conditions: 29213, 24 h
Description: as §1

[12] = tested on: S. epidermidis 12228; format: cell-based, Staphylococcus epidermidis; conditions: 12228, 24 h
Description: as §1

[13] = tested on: MRSA 43300; format: cell-based, methicillin-resistant S. aureus; conditions: 43300, 24 h
Description: as §1

[14] = tested on: B. subtilis 63501; format: cell-based, Bacillus subtilis; conditions: 63501, 24 h
Description: as §1

[15] = tested on: E. faecalis 29212; format: cell-based, Enterococcus faecalis; conditions: 29212, 24 h
Description: as §1

[16] = tested on: Listeria monocytogenes CGMCC 1.1075; format: cell-based; conditions: CGMCC 1.1075, 24 h
Description: as §1

[17] = tested on: all of the tested bacterial strains; assay: Geometric mean of MICs, all tested bacterial strains; format: cell-based; conditions: for GM, All: geometric mean of MICs across all tested strains; for TI, All: therapeutic index TI = MHC/GM MIC
Excerpt: The antimicrobial activity of AMPs is the most decisive index for evaluating the clinical application of antimicrobial drugs. Many antimicrobial agents inhibit bacterial growth rather than kill the bacteria quickly, and long-term infections are pathogens that are not completely killed, which results in bacterial severe drug resistance. […] The geometric mean (GM) values of the MICs/MBCs of the two series across all of the tested bacterial strains are represented in Table 3, which depicts the average bacteriostatic/bactericidal level of a peptide.
as §1

[18] = tested on: E. coli ATCC 25922; assay: Salt sensitivity assay (MIC); format: cell-based, Escherichia coli; conditions: for MIC, FeCl3: 4 μM FeCl3; for MIC, NH4Cl: 6 μM NH4Cl; for MIC, ZnCl2: 8 μM ZnCl2; for MIC, MgCl2: 1 mM MgCl2; for MIC, CaCl2: 2 mM CaCl2; for MIC, KCl: 4.5 mM KCl; for MIC, NaCl: 150 mM NaCl; for MIC, Control: no added salt, three independent assays
Description: as §1
(§3) The salt sensitivities of the peptides were determined. E. coli ATCC 25922 and S. aureus ATCC 29213 were incubated in the presence of various ultimate concentrations of physiological salts (150 mM NaCl, 4.5 mM KCl, 6 μM NH4Cl, 8 μM ZnCl2, 1 mM MgCl2, 2mM CaCl2, and 4 μM FeCl3) according to our previous protocol ([Yang et al., 2019]). These tests were performed under the MICs, and three independent assays were performed.

[19] = tested on: S. aureus 29213; assay: Salt sensitivity assay (MIC); format: cell-based, Staphylococcus aureus; conditions: for MIC, FeCl3: 4 μM FeCl3; for MIC, NH4Cl: 6 μM NH4Cl; for MIC, ZnCl2: 8 μM ZnCl2; for MIC, MgCl2: 1 mM MgCl2; for MIC, CaCl2: 2 mM CaCl2; for MIC, KCl: 4.5 mM KCl; for MIC, NaCl: 150 mM NaCl; for MIC, Control: no added salt, three independent assays
Description: as §1, §3

WWRWWRRRW-NH2 [W1]
1 µM: MIC [14]
4 µM: MIC [1] | MIC [2] | MIC [3] | MIC [4] | MIC [5] | MIC [6] | MBC [10] | MBC [11] | MBC [12] | MBC [13] | MIC [15] | MIC, NH4Cl [18] | MIC, KCl [18] | MIC, Control [18] | MIC, NaCl [19]
18.23: TI, All [17]
2 µM: MIC [10] | MIC [11] | MIC [12] | MIC [13] | MBC [14] | MIC, FeCl3 [18] | MIC, ZnCl2 [18] | MIC, MgCl2 [18] | MIC, CaCl2 [18] | MIC, FeCl3 [19] | MIC, NH4Cl [19] | MIC, ZnCl2 [19] | MIC, MgCl2 [19] | MIC, CaCl2 [19] | MIC, KCl [19] | MIC, Control [19]
8 µM: MBC [1] | MBC [2] | MBC [3] | MBC [4] | MBC [5] | MBC [6] | MIC [7] | MBC [15] | MIC [16] | MIC, NaCl [18]
2.44 µM: GM, Gram-positive bacteria [9]
16 µM: MBC [7] | MBC [16]
13.70: TI, Gram-negative bacteria [8]
3.51 µM: GM, All [17]
26.23: TI, Gram-positive bacteria [9]
4.67 µM: GM, Gram-negative bacteria [8]

WWWRRRRWW-NH2 [W4]
8 µM: MBC [1] | MIC [2] | MIC [3] | MIC [4] | MIC [5] | MBC [6] | MIC [7] | MBC [15] | MIC, CaCl2 [18]
5.88 µM: GM, Gram-negative bacteria [8]
32 µM: MBC [16]
16 µM: MBC [2] | MBC [3] | MBC [4] | MBC [5] | MBC [7] | MIC [16] | MIC, MgCl2 [18] | MIC, KCl [18] | MIC, NaCl [18]
21.77: TI, Gram-negative bacteria [8]
1 µM: MIC [14] | MIC, NH4Cl [19] | MIC, ZnCl2 [19] | MIC, MgCl2 [19] | MIC, KCl [19] | MIC, NaCl [19]
4.18 µM: GM, All [17]
2 µM: MIC [10] | MIC [11] | MIC [12] | MIC [13] | MBC [14] | MIC, NH4Cl [18] | MIC, FeCl3 [19] | MIC, CaCl2 [19] | MIC, Control [19]
2.69 µM: GM, Gram-positive bacteria [9]
47.58: TI, Gram-positive bacteria [9]
30.62: TI, All [17]
4 µM: MIC [1] | MIC [6] | MBC [10] | MBC [11] | MBC [12] | MBC [13] | MIC [15] | MIC, FeCl3 [18] | MIC, ZnCl2 [18] | MIC, Control [18]
